# In patent US11642339B2 (THERAVANCE BIOPHARMA R&D IP, LLC, priority 2017, dated 2023):
# Values joined by “and” are separate entries in the source; they are usually repeats but may differ in a detail not shown here. Equal values may be shown once. Read-outs that look alike come from different tables or passages of the source.
# How the values were obtained:
# [1] = tested on: subjects with diabetic or idiopathic gastroparesis
# Description: (§1) A daily proprietary patient reported outcome (PRO) tool was used to assess GP symptoms, the Gastroparesis Rating Scale (GRS), developed according to the current FDA PRO guidance. The GRS covers the following cardinal symptom domains: (1) nausea, (2) vomiting, (3) postprandial fullness/early satiety, (4) bloating, (5) upper abdominal pain, (6) gastric reflux/burning, and (7) bowel movements. The GRS symptom domains may be also categorized or grouped into Factor 1 (fullness, early satiety, bloating, upper abdominal pain, and epigastric burning) and Factor 2 (nausea and vomiting).
# GRS Factor 1 (also Summary Score 1) comprised fullness/early satiety, bloating, upper abdominal pain, and epigastric burning domains, whereas GRS Factor 2 (also Summary Score 2) comprised nausea and vomiting domains.
# After the psychometric evaluation the GRS was summarized using two summary scores: Summary Score 1 combined the fullness/early satiety, bloating, upper abdominal pain, and epigastric burning domains and Summary Score 2 combined the nausea and vomiting domains.
# [2] = tested on: subjects with diabetic or idiopathic gastroparesis; test: DIGEST I: weekly GRS total score; conditions: ITT
# Description: Gastroparesis Rating Score is a patient reported outcome that measures 9 symptoms: (1) nausea, (2) bloating, (3) postprandial fullness, (4) early satiety, (5) vomiting, (6) abdominal pain, (7) epigastric burning, (8) gastric reflux with or without burning, and (9) bowel movements, using up to 27 questions assessing the severity of the symptom, the daily frequency of the symptom, the length of time on a daily basis of the symptom, and whether the symptom continues over a 24-hour period.
# The total duration of study participation for each completed subject was approximately 19 weeks including: • Screening period: up to 5 weeks, including one week baseline period; • Treatment period: 12 weeks; and • Follow-up: 2 weeks.
# During the treatment period, subjects were instructed to take 1 capsule of study drug once daily approximately 30 minutes prior to eating at approximately the same time each morning and to record the time of drug ingestion in the electronic diary. Subjects also completed the GCS1-24H and GRS on a daily basis using an electronic diary. […] Subjects returned to the study center for safety and efficacy assessments as detailed in the Schedule of Study Procedures.
# as §1
# The primary endpoint evaluation time point was Week 4 with sensitivity analyses conducted at Weeks 8 and 12.
# LS Mean Differences in each subgroup are calculated based on repeated measures mixed effect model with change from baseline in weekly GRS total score as dependent variable, treatment, gastroparesis type (diabetic vs. idiopathic), GE test time (historical vs. prospective), baseline GRS total score, time, subgroup variable, interaction effect of treatment by time, baseline GRS total score by time, treatment by subgroup variable, time by subgroup variable and treatment by time by subgroup variable as fixed effect, a random effect of subject within site, using an unstructured covariance structure.
# [3] = 5 mg/day, Week 4, diabetic gastroparesis population
# [4] = 5 mg/day, Week 4, idiopathic gastroparesis population
# [5] = 5 mg/day, Week 8, diabetic gastroparesis population
# [6] = 5 mg/day, Week 8, idiopathic gastroparesis population
# [7] = 15 mg/day, Week 4, diabetic gastroparesis population
# [8] = 15 mg/day, Week 4, idiopathic gastroparesis population
# [9] = 15 mg/day, Week 8, diabetic gastroparesis population
# [10] = 15 mg/day, Week 8, idiopathic gastroparesis population
# [11] = 15 mg/day, Week 12, diabetic gastroparesis population
# [12] = 15 mg/day, Week 12, idiopathic gastroparesis population
# [13] = 30 mg/day, Week 4, diabetic gastroparesis population
# [14] = 30 mg/day, Week 4, idiopathic gastroparesis population
# [15] = 30 mg/day, Week 8, diabetic gastroparesis population
# [16] = 30 mg/day, Week 8, idiopathic gastroparesis population
# [17] = 30 mg/day, Week 12, diabetic gastroparesis population
# [18] = 30 mg/day, Week 12, idiopathic gastroparesis population
substance,measurement,setting,value
"1-isopropyl-2-oxo-1,2-dihydroquinoline-3-carboxylic acid {(1S,3R,5R)-8-[(R)-2-hydroxy-3-(methanesulfonyl-methyl-amino)propyl]-8-azabicyclo[3.2.1]oct-3-yl}amide [Velusetrag]","LS Mean Difference vs placebo, GRS Summary Score 1 (Factor 1)","[1]; 5 mg/day, Week 4, ITT",−0.4 points and −0.4 (0.16) points
same,"LS Mean change from baseline, GRS Summary Score 1 (Factor 1)","[1]; 5 mg/day, Week 4, ITT",−1.3 (0.11) points
same,"LS Mean Difference vs placebo, GRS Summary Score 1 (Factor 1)",[1]; [3],−0.3 (0.22) points
same,"LS Mean change from baseline, GRS Summary Score 1 (Factor 1)",[1]; [3],−1.2 (0.16) points
same,"LS Mean Difference vs placebo, GRS Summary Score 1 (Factor 1)",[1]; [4],−0.5 (0.23) points
same,"LS Mean change from baseline, GRS Summary Score 1 (Factor 1)",[1]; [4],−1.3 (0.16) points
same,"LS Mean Difference vs placebo, GRS Summary Score 1 (Factor 1)","[1]; 5 mg/day, Week 8, ITT",−0.3 (0.18) points
same,"LS Mean change from baseline, GRS Summary Score 1 (Factor 1)","[1]; 5 mg/day, Week 8, ITT",−1.4 (0.13) points
same,"LS Mean Difference vs placebo, GRS Summary Score 1 (Factor 1)",[1]; [5],−0.2 (0.25) points
same,"LS Mean change from baseline, GRS Summary Score 1 (Factor 1)",[1]; [5],−1.4 (0.18) points
same,"LS Mean Difference vs placebo, GRS Summary Score 1 (Factor 1)",[1]; [6],−0.4 (0.26) points
same,"LS Mean change from baseline, GRS Summary Score 1 (Factor 1)",[1]; [6],−1.4 (0.18) points
same,"LS Mean Difference vs placebo, GRS Summary Score 1 (Factor 1)","[1]; 5 mg/day, Week 12, ITT",−0.4 points and −0.4 (0.19) points
same,"LS Mean change from baseline, GRS Summary Score 1 (Factor 1)","[1]; 5 mg/day, Week 12, ITT",−1.5 (0.13) points
same,"LS Mean Difference vs placebo, GRS Summary Score 1 (Factor 1)","[1]; 15 mg/day, Week 4, ITT",−0.2 (0.17) points
same,"LS Mean change from baseline, GRS Summary Score 1 (Factor 1)","[1]; 15 mg/day, Week 4, ITT",−1.1 (0.12) points
same,"LS Mean Difference vs placebo, GRS Summary Score 1 (Factor 1)",[1]; [7],−0.2 points
same,"LS Mean change from baseline, GRS Summary Score 1 (Factor 1)",[1]; [7],−1.2 points
same,"LS Mean Difference vs placebo, GRS Summary Score 1 (Factor 1)",[1]; [8],−0.4 (0.25) points
same,"LS Mean change from baseline, GRS Summary Score 1 (Factor 1)",[1]; [8],−1.2 (0.18) points
same,"LS Mean Difference vs placebo, GRS Summary Score 1 (Factor 1)","[1]; 15 mg/day, Week 8, ITT",−0.1 (0.19) points
same,"LS Mean change from baseline, GRS Summary Score 1 (Factor 1)","[1]; 15 mg/day, Week 8, ITT",−1.2 (0.14) points
same,"LS Mean Difference vs placebo, GRS Summary Score 1 (Factor 1)",[1]; [9],0.0 points
same,"LS Mean change from baseline, GRS Summary Score 1 (Factor 1)",[1]; [9],−1.2 points
same,"LS Mean Difference vs placebo, GRS Summary Score 1 (Factor 1)",[1]; [10],−0.4 (0.28) points
same,"LS Mean change from baseline, GRS Summary Score 1 (Factor 1)",[1]; [10],−1.3 (0.20) points
same,"LS Mean Difference vs placebo, GRS Summary Score 1 (Factor 1)","[1]; 15 mg/day, Week 12, ITT",−0.2 (0.2) points
same,"LS Mean change from baseline, GRS Summary Score 1 (Factor 1)","[1]; 15 mg/day, Week 12, ITT",−1.3 (0.15) points
same,"LS Mean Difference vs placebo, GRS Summary Score 1 (Factor 1)",[1]; [11],0.0 points
same,"LS Mean change from baseline, GRS Summary Score 1 (Factor 1)",[1]; [11],−1.3 points
same,"LS Mean Difference vs placebo, GRS Summary Score 1 (Factor 1)",[1]; [12],−0.4 (0.29) points
same,"LS Mean change from baseline, GRS Summary Score 1 (Factor 1)",[1]; [12],−1.4 (0.22) points
same,"LS Mean Difference vs placebo, GRS Summary Score 1 (Factor 1)","[1]; 30 mg/day, Week 4, ITT",0.0 (0.17) points
same,"LS Mean change from baseline, GRS Summary Score 1 (Factor 1)","[1]; 30 mg/day, Week 4, ITT",−0.8 (0.12) points
same,"LS Mean Difference vs placebo, GRS Summary Score 1 (Factor 1)",[1]; [13],0.1 points
same,"LS Mean change from baseline, GRS Summary Score 1 (Factor 1)",[1]; [13],−0.8 points
same,"LS Mean Difference vs placebo, GRS Summary Score 1 (Factor 1)",[1]; [14],−0.0 (0.23) points
same,"LS Mean change from baseline, GRS Summary Score 1 (Factor 1)",[1]; [14],−0.8 (0.16) points
same,"LS Mean Difference vs placebo, GRS Summary Score 1 (Factor 1)","[1]; 30 mg/day, Week 8, ITT",−0.1 (0.18) points
same,"LS Mean change from baseline, GRS Summary Score 1 (Factor 1)","[1]; 30 mg/day, Week 8, ITT",−1.1 (0.13) points
same,"LS Mean Difference vs placebo, GRS Summary Score 1 (Factor 1)",[1]; [15],0.0 points
same,"LS Mean change from baseline, GRS Summary Score 1 (Factor 1)",[1]; [15],−1.2 points
same,"LS Mean Difference vs placebo, GRS Summary Score 1 (Factor 1)",[1]; [16],−0.2 (0.26) points
same,"LS Mean change from baseline, GRS Summary Score 1 (Factor 1)",[1]; [16],−1.1 (0.18) points
same,"LS Mean Difference vs placebo, GRS Summary Score 1 (Factor 1)","[1]; 30 mg/day, Week 12, ITT",−0.1 (0.2) points
same,"LS Mean change from baseline, GRS Summary Score 1 (Factor 1)","[1]; 30 mg/day, Week 12, ITT",−1.2 (0.14) points
same,"LS Mean Difference vs placebo, GRS Summary Score 1 (Factor 1)",[1]; [17],−0.1 points
same,"LS Mean change from baseline, GRS Summary Score 1 (Factor 1)",[1]; [17],−1.3 points
same,"LS Mean Difference vs placebo, GRS Summary Score 1 (Factor 1)",[1]; [18],−0.1 (0.28) points
same,"LS Mean change from baseline, GRS Summary Score 1 (Factor 1)",[1]; [18],−1.1 (0.19) points
same,"LS Mean Difference vs placebo, weekly GRS total score","[2]; 5 mg/day, Week 4",−0.4 points and −0.4 (0.16) points
same,"LS Mean change from baseline, weekly GRS total score","[2]; 5 mg/day, Week 4",−1.3 (0.11) points
same,"LS Mean Difference vs placebo, weekly GRS total score","[2]; 5 mg/day, Week 8",−0.3 (0.18) points
same,"LS Mean change from baseline, weekly GRS total score","[2]; 5 mg/day, Week 8",−1.4 (0.13) points
same,"LS Mean Difference vs placebo, weekly GRS total score","[2]; 5 mg/day, Week 12",−0.4 (0.18) points
same,"LS Mean change from baseline, weekly GRS total score","[2]; 5 mg/day, Week 12",−1.5 (0.13) points
same,"LS Mean Difference vs placebo, weekly GRS total score","[2]; 15 mg/day, Week 4",−0.2 (0.17) points
same,"LS Mean change from baseline, weekly GRS total score","[2]; 15 mg/day, Week 4",−1.1 (0.12) points
same,"LS Mean Difference vs placebo, weekly GRS total score","[2]; 15 mg/day, Week 8",−0.1 (0.19) points
same,"LS Mean change from baseline, weekly GRS total score","[2]; 15 mg/day, Week 8",−1.2 (0.14) points
same,"LS Mean Difference vs placebo, weekly GRS total score","[2]; 15 mg/day, Week 12",−0.2 (0.19) points
